The target in the assay is human OX2R (Homo sapiens (Human), UniProt O43614). Briefly: IPOne (IP-1) assay in CHO cells expressing human OX2R. The assay is classed as cell-based. Conditions: for Emax (%) / Emax: percentage of mean max effect of a reference compound at 1 uM (100% activity by comparison to Orexin A), human OX2R; for IC50: CHO cells expressing human OX2R, IP-One detection, 2 hours incubation, EC50 = inflection point of four parameter logistic fit, read-out: hOX2R_IP_IC50; for Emax: CHO, read-out: Emax (%). An outline of the steps:
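CHO cells stably expressing human OX2R were stimulated with compound (10-point ½-log dilutions) for 2 h at 37 °C. IP-1 accumulation was read by HTRF (IP-One, 665/620 nm). EC50 from a four-parameter fit; % effect relative to 1 μM reference agonist control.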

The Emax is the greatest response seen or fitted, relative to the assay's reference.

Chain of human OX2R (O43614 whole entry): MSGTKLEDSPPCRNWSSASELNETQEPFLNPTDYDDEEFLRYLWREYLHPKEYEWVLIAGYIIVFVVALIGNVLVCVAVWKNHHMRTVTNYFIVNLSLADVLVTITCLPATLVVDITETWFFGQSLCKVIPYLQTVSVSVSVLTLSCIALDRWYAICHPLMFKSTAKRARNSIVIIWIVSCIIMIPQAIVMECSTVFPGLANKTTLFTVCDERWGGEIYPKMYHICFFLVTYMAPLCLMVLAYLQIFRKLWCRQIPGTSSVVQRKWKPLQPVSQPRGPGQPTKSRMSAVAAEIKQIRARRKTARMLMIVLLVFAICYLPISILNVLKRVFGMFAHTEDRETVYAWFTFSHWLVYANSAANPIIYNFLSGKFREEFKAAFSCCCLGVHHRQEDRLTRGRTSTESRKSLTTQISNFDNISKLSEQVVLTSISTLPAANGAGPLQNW

In the case of `COC(=O)N1[C@H](C)C[C@H](NS(=O)(=O)N(C)C)[C@@H]1COC1CCC2(c3cnccn3)CC2C1` (stereo partly drawn) [Example 13, methyl (2R,3S,5R)-3-((N,N-dimethylsulfamoyl)amino)-5-methyl-2-(((6-(pyrazin-2-yl)bicyclo[4.1.0]heptan-3-yl)oxy)methyl)pyrrolidine-1-carboxylate], the “Emax (%)” value worked out at 82.0%.
Consider `COC(=O)N1[C@H](C)C[C@H](NS(C)(=O)=O)[C@@H]1CO[C@H]1CC[C@@]2(c3ncc(C#N)cn3)C[C@H]2C1` [Example 190, methyl (2R,3S,5R)-2-((((1S,3S,6R)-6-(5-cyanopyrimidin-2-yl)bicyclo[4.1.0]heptan-3-yl)oxy)methyl)-5-methyl-3-(methylsulfonamido)pyrrolidine-1-carboxylate], for which the IC50 turned out to be 49.5 nM and the Emax is 103%.
Regarding `COC(=O)N1[C@H](C)C[C@H](NS(=O)(=O)C2CC2)[C@@H]1CO[C@H]1CC[C@@]2(c3ncc(F)cn3)C[C@H]2C1` [Example 42, methyl (2R,3S,5R)-3-(cyclopropanesulfonamido)-2-((((1S,3S,6R)-6-(5-fluoropyrimidin-2-yl)bicyclo[4.1.0]heptan-3-yl)oxy)methyl)-5-methylpyrrolidine-1-carboxylate], the maximum response (Emax) was found to be 103%.
Turning to `COC[C@@H]1C[C@H](NS(C)(=O)=O)[C@H](CO[C@H]2CC[C@@]3(c4ncc(F)cn4)C[C@H]3C2)N1C(=O)OC` [Example 132, methyl (2R,3S,5S)-2-((((1S,3S,6R)-6-(5-fluoropyrimidin-2-yl)bicyclo[4.1.0]heptan-3-yl)oxy)methyl)-5-(methoxymethyl)-3-(methylsulfonamido)pyrrolidine-1-carboxylate], the Emax came to 103%.
Same read-out and setting: the value for `COC(=O)N1[C@H](C)C[C@H](NS(=O)(=O)CF)[C@@H]1COC1CCC2(c3ncc(F)c(OC)n3)CC2C1` (stereo partly drawn) [Example 85, methyl (2R,3S,5R)-2-(((6-(5-fluoro-4-methoxypyrimidin-2-yl)bicyclo[4.1.0]heptan-3-yl)oxy)methyl)-3-((fluoromethyl)sulfonamido)-5-methylpyrrolidine-1-carboxylate] was 97.1%.
For `COC(=O)N1[C@H](C)C[C@H](NS(C)(=O)=O)[C@@H]1COC1CCC2(c3ccccc3)CC2C1` (single isomer, unassigned) [Example 2], the IC50 turned out to be 176 nM and the “Emax (%)” value is 100.5%.
As for `COC(=O)N1[C@H](C)C[C@H](NS(=O)(=O)Cc2ccccc2)[C@@H]1CO[C@@H]1CC[C@]2(c3ncc(F)cn3)C[C@@H]2C1` [Example 45, methyl (2R,3S,5R)-2-((((1R,3R,6S)-6-(5-fluoropyrimidin-2-yl)bicyclo[4.1.0]heptan-3-yl)oxy)methyl)-5-methyl-3-((phenylmethyl)sulfonamido)pyrrolidine-1-carboxylate], the Emax was 92.7%.
For the molecule `COC(=O)N1[C@H](C)C[C@H](NS(=O)(=O)CF)[C@@H]1COC1CCC2(c3ncc(Cl)cn3)CC2C1` (stereo partly drawn) [Example 94, methyl (2R,3S,5R)-2-(((6-(5-chloropyrimidin-2-yl)bicyclo[4.1.0]heptan-3-yl)oxy)methyl)-3-((fluoromethyl)sulfonamido)-5-methylpyrrolidine-1-carboxylate], the Emax was found to be 102%.
On to `CC(C)OC(=O)N1CCC[C@H](NS(=O)(=O)C(F)F)[C@@H]1CO[C@H]1CC[C@@]2(c3ncc(F)cn3)C[C@H]2C1` [Example 121, isopropyl (2R,3S)-3-((difluoromethyl)sulfonamido)-2-((((1S,3S,6R)-6-(5-fluoropyrimidin-2-yl)bicyclo[4.1.0]heptan-3-yl)oxy)methyl)piperidine-1-carboxylate], for which the Emax worked out at 108%.
As for `CCS(=O)(=O)N[C@H]1[C@H]2CCC[C@H]2N(C(=O)OC)[C@H]1COC1CCC2(c3ncc(F)cn3)CC2C1` (stereo partly drawn) [Example 129, methyl (2R,3S,3aS,6aR)-3-(ethylsulfonamido)-2-(((6-(5-fluoropyrimidin-2-yl)bicyclo[4.1.0]heptan-3-yl)oxy)methyl)hexahydrocyclopenta[b]pyrrole-1(2H)-carboxylate], the Emax stood at 101%.
For `COC(=O)N1[C@H](C)C[C@H](NS(C)(=O)=O)[C@@H]1COC1CCC2(c3ccccc3)CC2C1` (single isomer, unassigned) [Example 1], the IC50 came to 20.6 nM and the Emax is 99.6%.
Take `CC(C)OC(=O)N1[C@H](C(F)F)C[C@H](NS(C)(=O)=O)[C@@H]1CO[C@H]1CC[C@@]2(c3ncc(F)cn3)C[C@H]2C1` [Example 119, isopropyl (2R,3S,5S)-5-(difluoromethyl)-2-((((1S,3S,6R)-6-(5-fluoropyrimidin-2-yl)bicyclo[4.1.0]heptan-3-yl)oxy)methyl)-3-(methylsulfonamido)pyrrolidine-1-carboxylate]: the maximal response (Emax) came out at 100%.
Regarding `COC(=O)N1[C@H](C)C[C@H](NS(C)(=O)=O)[C@@H]1COC1CCC2(c3ncc(F)c(C(F)F)n3)CC2C1` (stereo partly drawn) [Example 73, methyl (2R,3S,5R)-2-(((6-(4-(difluoromethyl)-5-fluoropyrimidin-2-yl)bicyclo[4.1.0]heptan-3-yl)oxy)methyl)-5-methyl-3-(methylsulfonamido)pyrrolidine-1-carboxylate], the maximum response (Emax) was 90.7%.
On to `CC(C)OC(=O)N1[C@H](C)C[C@H](NS(=O)(=O)CF)[C@@H]1CO[C@H]1CC[C@@]2(c3ncc(Br)cn3)C[C@H]2C1` (single isomer, unassigned) [Example 103], for which the IC50 was found to be 4.3 nM and the Emax was 101%.
As to `CC(C)OC(=O)N1CCC[C@H](NS(=O)(=O)C2CC2)[C@@H]1COC1CCC2(c3ncc(F)cn3)CC2C1` (stereo partly drawn) [Example 122, isopropyl (2R,3S)-3-(cyclopropanesulfonamido)-2-(((6-(5-fluoropyrimidin-2-yl)bicyclo[4.1.0]heptan-3-yl)oxy)methyl)piperidine-1-carboxylate], the maximal effect (Emax) is 104%.
On to `CC(C)OC(=O)N1[C@H](C)C[C@H](NS(=O)(=O)C(F)F)[C@@H]1CO[C@H]1CC[C@@]2(c3ncc(Cl)cn3)C[C@H]2C1` (single isomer, unassigned) [Example 81], for which the IC50 stood at 4.5 nM and the Emax was 100%.
For `CC(C)OC(=O)N1[C@H](C)C[C@H](NS(=O)(=O)CF)[C@@H]1CO[C@@H]1CC[C@]2(c3ncc(F)cn3)C[C@@H]2C1` (single isomer, unassigned) [Example 99] the same measures were 2.5 nM and 103%.
With `COC(=O)N1[C@H](C)C[C@H](NS(C)(=O)=O)[C@@H]1COC1CCC2(c3ncc(C)cn3)CC2C1` (stereo partly drawn) [Example 159, methyl (2R,3S,5R)-5-methyl-2-(((6-(5-methylpyrimidin-2-yl)bicyclo[4.1.0]heptan-3-yl)oxy)methyl)-3-(methylsulfonamido)pyrrolidine-1-carboxylate], the maximum response (Emax) was 98.1%.
In the case of `COC(=O)N1[C@H](C)C[C@H](NS(C)(=O)=O)[C@@H]1COC1CCC2(c3nccs3)CC2C1` (stereo partly drawn) [Example 149, methyl (2R,3S,5R)-5-methyl-3-(methylsulfonamido)-2-(((6-(thiazol-2-yl)bicyclo[4.1.0]heptan-3-yl)oxy)methyl)pyrrolidine-1-carboxylate], the maximal effect (Emax) stood at 96.8%.
With `COC(=O)N1[C@H](C)C[C@H](NS(=O)(=O)CF)[C@@H]1COC1CCC2(c3ncc(Br)cn3)CC2C1` (stereo partly drawn) [Example 89, methyl (2R,3S,5R)-2-(((6-(5-bromopyrimidin-2-yl)bicyclo[4.1.0]heptan-3-yl)oxy)methyl)-3-((fluoromethyl)sulfonamido)-5-methylpyrrolidine-1-carboxylate], the maximal effect (Emax) turned out to be 104%.
As to `C[C@@H]1C[C@H](NS(C)(=O)=O)[C@H](CO[C@H]2CC[C@@]3(c4ncc(F)cn4)C[C@H]3C2)N1C(=O)OCC1CC1(F)F` (stereo partly drawn) [Example 59, (2,2-difluorocyclopropyl)methyl (2R,3S,5R)-2-((((1S,3S,6R)-6-(5-fluoropyrimidin-2-yl)bicyclo[4.1.0]heptan-3-yl)oxy)methyl)-5-methyl-3-(methylsulfonamido)pyrrolidine-1-carboxylate], the Emax stood at 104%.
`COC(=O)N1[C@H](C)C[C@H](NS(=O)(=O)CF)[C@@H]1CO[C@H]1CC[C@@]2(c3ncc(Cl)cn3)C[C@H]2C1` [Example 79, methyl (2R,3S,5R)-2-((((1S,3S,6R)-6-(5-chloropyrimidin-2-yl)bicyclo[4.1.0]heptan-3-yl)oxy)methyl)-3-((fluoromethyl)sulfonamido)-5-methylpyrrolidine-1-carboxylate]: the IC50 came out at 0.86 nM and the maximal effect (Emax) is 103%.
On to `C[C@@H]1C[C@H](NS(C)(=O)=O)[C@H](CO[C@H]2CC[C@@]3(c4ncc(F)cn4)C[C@H]3C2)N1C(=O)O[C@H]1COC[C@@H]1F` [Example 56, (3S,4S)-4-fluorotetrahydrofuran-3-yl (2R,3S,5R)-2-((((1S,3S,6R)-6-(5-fluoropyrimidin-2-yl)bicyclo[4.1.0]heptan-3-yl)oxy)methyl)-5-methyl-3-(methylsulfonamido)pyrrolidine-1-carboxylate], for which the maximal response (Emax) amounted to 104%.
Take `COC(=O)N1[C@H](C)C[C@H](NS(=O)(=O)N(C)C)[C@@H]1COC1CCC2(c3cccc(F)c3)CC2C1` (mixture of isomers) [Example 3, methyl (2R,3S,5R)-3-((N,N-dimethylsulfamoyl)amino)-2-(((6-(3-fluorophenyl)bicyclo[4.1.0]heptan-3-yl)oxy)methyl)-5-methylpyrrolidine-1-carboxylate]: the Emax came out at 99.9%.
As for `COC(=O)N1[C@@H]2CCC[C@@H]2[C@H](NS(C)(=O)=O)[C@@H]1COC1CCC2(c3ncccn3)CC2C1` (stereo partly drawn) [Example 175, methyl (2R,3S,3aS,6aR)-3-(methylsulfonamido)-2-(((6-(pyrimidin-2-yl)bicyclo[4.1.0]heptan-3-yl)oxy)methyl)hexahydrocyclopenta[b]pyrrole-1(2H)-carboxylate], the maximal response (Emax) worked out at 99.9%.

For the origin of these results see patent publication US11680060B2, “Bicycloheptane pyrrolidine orexin receptor agonists” (Merck Sharp & Dohme LLC, priority 2020, dated 2023).
